Laboratory results from patent US9128081B2, “TDP-43-storing cell model” (TOKYO METROPOLITAN INSTITUTE OF MEDICAL SCIENCE, priority 2008, dated 2015).
“Also recorded” adds a separate entry of the source. Where a SMILES comes first, the peptide text is derived from it. The star is where a group is joined. Cbz = O=C(OCc1ccccc1)*

Assays:
Format in all cases: cell-based, human
[1] = system: SH-SY5Y cells expressing NLS2-deficient mutant TDP-43; experiment: Protease inhibitor treatment of NLS2-deficient mutant-expressing cells, confocal laser microscope; details: inhibitor 20 μM, 6 hours; for inclusion formation / expression pattern, anti-TARDBP staining: 37° C.
Experimental: (§1) Each of the above-described various plasmid vectors (pcDNA3 or pEGFP system, 1 μg) was integrated into SH-SY5Y cell using FuGENE6 transfection reagent (Roche Diagnostics). FuGENE6 at 3-fold volume of the total plasmid amount was mixed with the plasmid, left to stand at room temperature for 15 minutes, and then mixed with the cell solution. The resultant was cultured for 2-3 days, and used for preparation of cell lysates or immunohistological staining.
(§2) SH-SY5Y cells cultured on glass covers were mixed with each of the various expression vectors (1 μg) and added in the presence of FuGENE6. After two days of cultivation, cell immobilization or protease inhibitor treatment was carried out. In the protease inhibitor treatment, a final concentration of 20 μM of MG132 (proteasome inhibitor) or carbobenzoxy-leucyl-leucinal (zLL: calpain inhibitor) was added to the cell, and cultured at 37° C. for 6 hours. Thereafter, the cell was immobilized in a 4% paraformaldehyde solution. […] After washing with 50 mM Tris-HCl containing 0.05% Tween 20 and 150 mM NaCl (pH 7.5) (TBS-T), the cell was caused to react with a fluorescence-labeled secondary antibody at 37° C. for an hour. […] The resultant was sealed on a glass slide, and then analyzed with a confocal laser microscope (Carl Zeiss).
(§3) The primary antibody and the fluorescence-labeled secondary antibody used were as follows. • Primary antibody: • anti-TARDBP (ProteinTech, 1:1000 dilution); • anti-pS409/410 (antibody (antibody that specifically binds to TDP-43 aggregates) obtained by using, as an antigen, a peptide in which Ser residues at positions 409 and 410 of TDP-43 are both phosphorylated, 1:500 dilution); • anti-ubiquitin (MAB1510, CHEMICON, 1:500 dilution) • Fluorescence-labeled secondary antibody: • FITC-labeled anti-rabbit IgG (anti-rabbit immunoglobulin, FITC-labeled, Product number: F9887, Sigma, 1:500 dilution); • rhodamine-labeled anti-mouse IgG (anti-mouse immunoglobulin, TRITC-labeled, Product number: T2402, Sigma, 1:500 dilution) […]

[2] = system: SH-SY5Y cells expressing NLS1-deficient mutant TDP-43; experiment: Protease inhibitor treatment of NLS1-deficient mutant-expressing cells, confocal laser microscope; details: inhibitor 20 μM, 6 hours; for inclusion formation, anti-pS409/410 staining: inclusion diameter about 10 μm
Experimental: as §1, §2, §3

[3] = system: SH-SY5Y cells expressing wild-type TDP-43; experiment: Protease inhibitor treatment of wild-type TDP-43-expressing cells, confocal laser microscope; details: inhibitor 20 μM, 37° C., 6 hours
Experimental: as §1
as §2, with “Zeiss). […]” for “Zeiss).”

[4] = system: SH-SY5Y cells expressing pEGFP-TDP 162-414 (GFP-TDP 162-414); experiment: Suppression of formation of intracellular TDP-43 inclusions by low-molecular compounds (GFP-TDP 162-414); details: enhanced concentration-dependently, 3 days after addition
Experimental: (§4) The cell used was human neuroblast cell line SH-SY5Y, while pEGFP-TDP 162-414 (GFP-TDP 162-414) and pcDNA3-TDP delta NLS1&2 (TDP delta NLS1&2) which gave more significant formation of intracellular inclusions among various TDP-43 mutants were used to search for an inhibitor for the above-described inclusion formation.
(§5) Gene transfection into SH-SY5Y cell was carried out according to the method described in “Cultivation of SH-SY5Y cell and integration of plasmid vector” above, where 1 μg of each of the various plasmids was transfected into the cell with three-fold volume of a transfection reagent (FuGENE6: 3 μl).
(§6) Treatment with a candidate inhibitor took place two hours after gene transfection. As candidate inhibitors, methylene blue and dimebon were examined. […] The concentrations of methylene blue were determined to take the above concentrations by considering the concentration conditions that have no damage on cell proliferation. On the other hand, the concentrations of dimebon were determined by referring to a publication (Jun Wu et al., Molecular Neurodegeneration, 2008, vol. 3, p. 15), and the preparation method (suspension in sterile water) was carried out according to the instruction provided by the reagent supplier. […]
Fluorescence-Labeled Secondary Antibody: • Alexa-568-labeled anti-mouse IgG (1:500 dilution) […]

[5] = system: SH-SY5Y cells expressing pcDNA3-TDP delta NLS1&2 (TDP delta NLS1&2); experiment: Suppression of formation of intracellular TDP-43 inclusions by low-molecular compounds (TDP delta NLS1&2); details: enhanced concentration-dependently, 3 days after addition
Experimental: as §4, §5
as §6, with “transfection.” for “transfection. As candidate inhibitors, methylene blue and dimebon were examined.”
Fluorescence-Labeled Secondary Antibody: • Fluorescein isothiocyanate (FITC)-labeled anti-rabbit IgG (Sigma, 1:500 dilution) • Alexa-568-labeled anti-mouse IgG (1:500 dilution) […]

[6] = methylene blue 0.05 μM, FIGS. 19 and 20

CC(C)C[C@@H](C=O)NC(=O)[C@H](CC(C)C)NC(=O)[C@H](CC(C)C)NC(=O)OCc1ccccc1 [MG132] (Cbz-Leu-Leu-Leu-aldehyde)
inclusion formation / expression pattern, anti-TARDBP staining [1]: inclusions were found in the nucleus | inclusion formation, anti-pS409/410 and anti-ubiquitin staining ([1]; inclusion diameter about 10 μm): emergence of intranuclear inclusions positive to both anti-pS409/410 and anti-ubiquitin | inclusion formation, anti-TARDBP staining ([2]; 37° C.): did not show significant difference from MG132-free cases; also recorded: cytoplasmic inclusions were not observed | inclusion formation, anti-pS409/410 staining [2]: anti-pS409/410-positive cytoplasmic inclusions were observed | inclusion formation, anti-TARDBP staining [3]: did not show significant difference from MG132-free cases

Cc1ccc2c(c1)c1c(n2CCc2ccc(C)nc2)CCN(C)C1 [dimebon]
inhibition effect on formation of intracellular TDP-43 inclusions ([4]; dimebon 20 μM, FIGS. 21 and 22): inhibition effect of dimebon was also confirmed | inhibition effect on formation of intracellular TDP-43 inclusions ([5]; dimebon 20 μM, FIGS. 21 and 22): inhibition effect of dimebon was also confirmed

CN(C)c1ccc2nc3ccc(=[N+](C)C)cc-3sc2c1 [methylene blue]
inhibition effect on formation of intracellular TDP-43 inclusions [4, 6]: inhibition effect of methylene blue was confirmed | inhibition effect on formation of intracellular TDP-43 inclusions [5, 6]: inhibition effect of methylene blue was confirmed

CC(C)C[C@@H](C=O)NC(=O)[C@H](CC(C)C)NC(=O)OCc1ccccc1 [zLL, carbobenzoxy-leucyl-leucinal]
inclusion formation / expression pattern, anti-TARDBP staining [1]: no particular change was found in the expression pattern | inclusion formation, anti-pS409/410 staining [2]: no intracellular inclusion was observed
